Assay results published in patent US4977267A, “Intermediates for pyridyloxy compounds having utility as anti-peptic ulcer agents” (Fujirebio Kabushiki Kaisha, priority 1987, dated 1990).

target: T1, histamine H2 receptor (Cavia porcellus, UniProt P47747); experiment: Test on histamine H2 receptor antagonizing activity (isolated right atrium); set-up: species or system Hartley-strain guinea pigs; settings: guinea pig right atrium, heart rate; histamine dose-response; test compound 1×10^-6, 1×10^-7 M, 10 minutes; Van Rossum method; read-out: pA2 (converted)
T1 construct: the right atrium was dissected from the hearts; from tissue; host or cells: isolated right atrium of male Hartley-strain guinea pigs
T1 sequence (P47747 whole entry): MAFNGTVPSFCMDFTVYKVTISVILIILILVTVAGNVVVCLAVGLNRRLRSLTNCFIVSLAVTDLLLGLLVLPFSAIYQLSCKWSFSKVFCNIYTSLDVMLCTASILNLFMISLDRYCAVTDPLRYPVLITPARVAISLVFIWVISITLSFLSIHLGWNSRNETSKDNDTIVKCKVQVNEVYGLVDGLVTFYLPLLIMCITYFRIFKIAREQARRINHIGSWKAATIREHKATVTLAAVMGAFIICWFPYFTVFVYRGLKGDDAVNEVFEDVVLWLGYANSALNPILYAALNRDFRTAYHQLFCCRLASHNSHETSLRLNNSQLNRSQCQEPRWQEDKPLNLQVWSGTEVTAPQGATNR
Protocol: Test on histamine H2 receptor antagonizing activity
Hartley-strain guinea pigs (male 300 to 350 g) were stunned with a blow to the head. The heart was removed, and the right atrium was dissected from the hearts in the Krebs' solution bubbled with a […] was suspended in an Organ bath filled with the Krebs' solution kept at 32° C. The gaseous mixture was passed through the Organ bath, and a diastolic tension was adjusted to 1 g. The contraction of the atrium was recorded by a force displacement transducer, and the heart rate was measured by interlocking a heart rate meter to the transducer.
Histamine (used in the form of dihydrochloride; the same hereinafter) was added to the Organ bath cumulatively in a concentration of 1×10^-8 M to 3×10^-5 M. Thus, the dose-response curve of histamine was obtained. The Organ bath was washed several times, and each of the test compounds (1×10^-6, 1×10^-7 M) was added to the Organ bath, and a dose-response curve of histamine in the presence of the test compound was obtained 10 minutes later.
The pA2 value of each of the test compound was determined from the first histamine dose-response curve and the histamine dose-response curve obtained in the presence of the test compounds by the method of J. M. Van Rossum (Arch. Int. Pharmacodyn. Ther., 143-299, 1963).

| SMILES | Kb [nM] |
| --- | --- |
| O=C(C[S+]([O-])Cc1ccco1)NC/C=C\COc1cc(CN2CCCC2)ccn1 (stereo not drawn) [Example 10, N-{4-[4-(pyrrolidinomethyl)pyridyl-2-oxy]-cis-2-butenyl}-2-(furfurylsulfinyl)acetamide] | 126 |
| O=C(CS(=O)(=O)Cc1ccoc1)NC/C=C\COc1cc(CN2CCCC2)ccn1 [Example 11, N-{4-[4-(pyrrolidinomethyl)pyridyl-2-oxy]-cis-2-butenyl}-2-(3-furylmethylsulfonyl)acetamide] | 100 |
| O=C(C[S+]([O-])Cc1ccco1)NC/C=C\COc1cc(CN2CCOCC2)ccn1 (stereo not drawn) [Example 12, N-{4-[4-(morpholinomethyl)pyridyl-2-oxy]-cis-2-butenyl}-2-(furfurylsulfinyl)acetamide] | 251 |

system: gastric mucosa (lesion by necrotizing agent 0.4N HCl+50% ethanol); experiment: Test on the Action of Gastric Mucosal Protection; assay type: in vivo, Male Donryu rats; settings: 10 mg/kg, p.o., 30 minutes before necrotizing agent (0.4N HCl+50% ethanol, 5 ml/kg); stomach isolated after one hour; rats fasted 24 hours
Protocol: Test on the Action of Gastric Mucosal Protection
Male Donryu rats (150 to 250 g) which had been caused to fast for 24 hours were used. In the test, a necrotizing agent (0.4N HCl+50% ethanol) was orally administered in a dose of 5 ml/kg 30 minutes after administering each of the test compounds (10 mg/kg, p.o.). One hour after administration of the necrotizing agent, the stomach was isolated and fixed by formalin. The area of a lesion was measured, and by comparison with a control group, the percent inhibition was determined.

| SMILES | Inhibition (%) of lesion area [%] |
| --- | --- |
| O=C(CSCc1ccco1)NC/C=C\COc1cc(CN2CCCCC2)ccn1 [Example 1, N-{4-[4-(piperidinomethyl)pyridyl-2oxy]-cis-2-butenyl)-2-(furfurylthio)acetamide] | 66 |
| O=C(C[S+]([O-])Cc1ccco1)NC/C=C\COc1cc(CN2CCCCC2)ccn1 (stereo not drawn) [Example 2, N-{4-[4-(piperidinomethyl)pyridyl-2-oxy]-cis-2-butenyl}-2-(furfurylsulfinyl)acetamide] | 32 |
| O=C(CS(=O)(=O)Cc1ccoc1)NC/C=C\COc1cc(CN2CCCCC2)ccn1 [Example 3, N-{4-[4-(piperidinomethyl)pyridyl-2-oxy]-cis-2-butenyl}-2-(3-furylmethylsulfonyl)acetamide] | 62 |
| O=C(C[S+]([O-])Cc1ccco1)NC/C=C\COc1cc(CN2CCOCC2)ccn1 (stereo not drawn) [Example 12, N-{4-[4-(morpholinomethyl)pyridyl-2-oxy]-cis-2-butenyl}-2-(furfurylsulfinyl)acetamide] | 38 |
| O=C(C[S+]([O-])Cc1ccco1)NCCCCOc1cc(CN2CCCCC2)ccn1 (centres unmarked) [Example 21, N-{4-[4-(piperidinomethyl)-pyridyl-2-oxy]-butyl}-2-(furfurylsulfinyl)acetamide] | 32 |
